What was measured:
AMBEL (Ragweed, Common) [1] = assay: Postemergence herbicidal evaluation; format: in vivo, Ambrosia artemisifolia
Outline: (§1)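 Herbicidal effect was judged by eye on a 0–9 scale covering stand, vigor, deformity, size and chlorosis, compared with controls, four to five weeks after seedlings about two weeks old were sprayed (40 psi, ~0.0156–0.500 kg/ha).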

[2] = test system: IPOHE (Morningglory, Ivyleaf); assay: Postemergence herbicidal evaluation; format: in vivo, Ipomoea hederacea
Outline: as §1

[3] = test system: GLXMAW (Soybean, Williams); assay: Postemergence herbicidal evaluation; format: in vivo, Glycine max, (L.) Merr. cv Williams
Outline: as §1

ZEAMX (Corn, Field) = assay: Postemergence herbicidal evaluation; format: in vivo, Zea mays
Outline: as §1

ABUTH (Velvetleaf) = assay: Preemergence herbicidal evaluation; format: in vivo, Abutilon theophrasti; conditions: rated 4-5 weeks after treatment
Outline: (§2)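 Greenhouse preemergence test: seed-soil mix sown on ~1 inch soil; aqueous acetone spray at equivalent of ~0.0156–0.500 kg/ha; greenhouse-held and watered; scored 0–9 visually at 4–5 weeks.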

AMBEL (Ragweed, Common) [4] = assay: Preemergence herbicidal evaluation; format: in vivo, Ambrosia artemisifolia; conditions: rated 4-5 weeks after treatment
Outline: as §2

CASOB (Sicklepod) = assay: Preemergence herbicidal evaluation; format: in vivo, Cassia obtusifolia; conditions: rated 4-5 weeks after treatment
Outline: as §2

GALAP (Galium) = assay: Preemergence herbicidal evaluation; format: in vivo, Galium aparine; conditions: rated 4-5 weeks after treatment
Outline: as §2

ECHCG (Barnyardgrass) = assay: Preemergence herbicidal evaluation; format: in vivo, Echinochloa crus-galli; conditions: rated 4-5 weeks after treatment
Outline: as §2

SETVI (Foxtail, Green) = assay: Preemergence herbicidal evaluation; format: in vivo, Setaria viridis; conditions: rated 4-5 weeks after treatment
Outline: as §2

[5] = test system: GLXMAW (Soybean, Williams); assay: Preemergence herbicidal evaluation; format: in vivo, Glycine max, (L.) Merr. cv Williams; conditions: rated 4-5 weeks after treatment
Outline: as §2

CYPSE (Flatsedge) = assay: Preemergence weed control under flooded paddy conditions; format: in vivo, Cyperus serotinus; conditions: rated 3-4 weeks after treatment
Outline: (§3)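 First, seeds or propagules go into the top 0.5 cm of silt loam; next, water is held 1.5 to 3 cm over the soil; then compound (50/50 acetone/water) is pipetted into it at about 0.0313 to 0.500 kg/ha; finally plants are rated visually 0-9 after three to four weeks.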

[6] = test system: SAGPY (Arrowhead (Pygmaea)); assay: as above; format: in vivo, Sagittaria pygmaea; conditions: rated 3-4 weeks after treatment
Outline: as §3

[7] = test system: ECHORC (Watergrass (Calif.)); assay: Postemergence weed control under flooded paddy conditions; format: in vivo, Echinochloa oryzoides; conditions: postemergence weeds, rated 3 to 4 weeks after treatment
Outline: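 With weeds 3 to 5 cm tall and rice at the 1.5 to 2.5 leaf stage, containers were flooded and water held 1.5 to 3 cm above soil. Compounds in 50/50 v/v aqueous/acetone went into the flood water at about 0.0313 to 0.500 kg/ha a.i. Effects were visually rated 0–9 against controls after three to four weeks in the greenhouse.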

C=CCN1C(=O)C(CC(=O)OC)SC1=Nc1cc(-n2c(=O)cc(C(F)(F)F)n(C)c2=O)c(F)cc1Cl (stereo not shown) [Compound 64, Methyl 3-allyl-2-{{2-chloro-5-[3,6-dihydro-3-methyl-2,6-dioxo-4-(trifluoromethyl)-1(2H)-pyrimidinyl]-4-fluorophenyl}imino}-4-oxo-5-thiazolidineacetate]
7.0: Postemergence herbicidal rating GLXMAW ([3]; Rate 0.0158 kg/ha) | Postemergence herbicidal rating ZEAMX (ZEAMX (Corn, Field); Rate 0.0158 kg/ha) | Preemergence herbicidal rating AMBEL (AMBEL (Ragweed, Common) [4]; rate 0.0625 kg/ha) | Preemergence herbicidal rating GALAP (GALAP (Galium); rate 0.2500 kg/ha) | Preemergence herbicidal rating SETVI (SETVI (Foxtail, Green); rate 0.1250 kg/ha)
4.0: Preemergence herbicidal rating CASOB (CASOB (Sicklepod); rate 0.2500 kg/ha)
8.0: Postemergence herbicidal rating ZEAMX (ZEAMX (Corn, Field); Rate 0.0315 kg/ha) | Postemergence herbicidal rating ZEAMX (ZEAMX (Corn, Field); Rate 0.0630 kg/ha) | SAGPY herbicidal effect rating ([6]; 0.2500 kg/ha)
7.5: Postemergence herbicidal rating GLXMAW ([3]; Rate 0.0315 kg/ha) | Postemergence herbicidal rating GLXMAW ([3]; Rate 0.0630 kg/ha)
1.0: Preemergence herbicidal rating ABUTH (ABUTH (Velvetleaf); rate 0.0156 kg/ha) | Preemergence herbicidal rating CASOB (CASOB (Sicklepod); rate 0.0625 kg/ha) | Preemergence herbicidal rating GALAP (GALAP (Galium); rate 0.0625 kg/ha) | Preemergence herbicidal rating ECHCG (ECHCG (Barnyardgrass); rate 0.0625 kg/ha)
2.0: Preemergence herbicidal rating AMBEL (AMBEL (Ragweed, Common) [4]; rate 0.0156 kg/ha) | Preemergence herbicidal rating GLXMAW ([5]; rate 0.0625 kg/ha)
3.0: Preemergence herbicidal rating ECHCG (ECHCG (Barnyardgrass); rate 0.1250 kg/ha) | Preemergence herbicidal rating GLXMAW ([5]; rate 0.1250 kg/ha) | SAGPY herbicidal effect rating ([6]; 0.0625 kg/ha)
5.0: Preemergence herbicidal rating CASOB (CASOB (Sicklepod); rate 0.1250 kg/ha) | Preemergence herbicidal rating GLXMAW ([5]; rate 0.2500 kg/ha) | SAGPY herbicidal effect rating ([6]; 0.1250 kg/ha) | Herbicidal rating ECHORC ([7]; Rate 0.0313 kg/ha)
6.0: Preemergence herbicidal rating AMBEL (AMBEL (Ragweed, Common) [4]; rate 0.0313 kg/ha) | Preemergence herbicidal rating ECHCG (ECHCG (Barnyardgrass); rate 0.2500 kg/ha) | Herbicidal rating ECHORC ([7]; Rate 0.0625 kg/ha) | Herbicidal rating ECHORC ([7]; Rate 0.1250 kg/ha)
9.0: Postemergence herbicidal rating AMBEL (AMBEL (Ragweed, Common) [1]; Rate 0.0158 kg/ha) | Postemergence herbicidal rating AMBEL (AMBEL (Ragweed, Common) [1]; Rate 0.0315 kg/ha) | Postemergence herbicidal rating AMBEL (AMBEL (Ragweed, Common) [1]; Rate 0.0630 kg/ha) | Postemergence herbicidal rating IPOHE ([2]; Rate 0.0158 kg/ha) | Postemergence herbicidal rating IPOHE ([2]; Rate 0.0315 kg/ha) | Postemergence herbicidal rating IPOHE ([2]; Rate 0.0630 kg/ha) | Preemergence herbicidal rating ABUTH (ABUTH (Velvetleaf); rate 0.0313 kg/ha) | Preemergence herbicidal rating ABUTH (ABUTH (Velvetleaf); rate 0.0625 kg/ha) | Preemergence herbicidal rating ABUTH (ABUTH (Velvetleaf); rate 0.1250 kg/ha) | Preemergence herbicidal rating ABUTH (ABUTH (Velvetleaf); rate 0.2500 kg/ha) | Preemergence herbicidal rating AMBEL (AMBEL (Ragweed, Common) [4]; rate 0.1250 kg/ha) | Preemergence herbicidal rating AMBEL (AMBEL (Ragweed, Common) [4]; rate 0.2500 kg/ha) | Preemergence herbicidal rating SETVI (SETVI (Foxtail, Green); rate 0.0625 kg/ha) | Preemergence herbicidal rating SETVI (SETVI (Foxtail, Green); rate 0.2500 kg/ha) | Herbicidal rating ECHORC ([7]; Rate 0.2500 kg/ha)
0.0: Preemergence herbicidal rating CASOB (CASOB (Sicklepod); rate 0.0156 kg/ha) | Preemergence herbicidal rating CASOB (CASOB (Sicklepod); rate 0.0313 kg/ha) | Preemergence herbicidal rating GALAP (GALAP (Galium); rate 0.0156 kg/ha) | Preemergence herbicidal rating GALAP (GALAP (Galium); rate 0.0313 kg/ha) | Preemergence herbicidal rating ECHCG (ECHCG (Barnyardgrass); rate 0.0156 kg/ha) | Preemergence herbicidal rating ECHCG (ECHCG (Barnyardgrass); rate 0.0313 kg/ha) | Preemergence herbicidal rating SETVI (SETVI (Foxtail, Green); rate 0.0156 kg/ha) | Preemergence herbicidal rating SETVI (SETVI (Foxtail, Green); rate 0.0313 kg/ha) | Preemergence herbicidal rating GLXMAW ([5]; rate 0.0156 kg/ha) | Preemergence herbicidal rating GLXMAW ([5]; rate 0.0313 kg/ha) | CYPSE herbicidal effect rating (CYPSE (Flatsedge); 0.0313 kg/ha) | CYPSE herbicidal effect rating (CYPSE (Flatsedge); 0.0625 kg/ha) | CYPSE herbicidal effect rating (CYPSE (Flatsedge); 0.1250 kg/ha) | CYPSE herbicidal effect rating (CYPSE (Flatsedge); 0.2500 kg/ha) | SAGPY herbicidal effect rating ([6]; 0.0313 kg/ha)

— US20020137929A1, “1 - (3-heterocyclylphenyl) isothiourea, -isourea, -guanidine and -amidine herbicidal agents” (Intellectual Property Department, BASF Aktiengesellschaft, priority 1998, published 2002)
